Laboratory results as given in ChEMBL document CHEMBL1147182, “Clubbed thiazoles by MAOS: a novel approach to cyclin-dependent kinase 5/p25 inhibitors as a potential treatment for Alzheimer's disease” (Bioorg Med Chem, 2007).

Columns and labels:
[1] = molecular target: Cyclin-dependent kinase 5/CDK5 activator 1 (Homo sapiens, UniProt Q00535); assay: Inhibition of human cdk5/p25 by SPA; assay type: protein-complex assay
[2] = Cytotoxicity against VeroC1008 cells at 6.25 to 50 ug/ml by neutral red uptake assay; assay type: cell-based; conditions: chlorocebus sabaeus, vero

Cyclin-dependent kinase 5/CDK5 activator 1, sequence (Q00535 whole entry): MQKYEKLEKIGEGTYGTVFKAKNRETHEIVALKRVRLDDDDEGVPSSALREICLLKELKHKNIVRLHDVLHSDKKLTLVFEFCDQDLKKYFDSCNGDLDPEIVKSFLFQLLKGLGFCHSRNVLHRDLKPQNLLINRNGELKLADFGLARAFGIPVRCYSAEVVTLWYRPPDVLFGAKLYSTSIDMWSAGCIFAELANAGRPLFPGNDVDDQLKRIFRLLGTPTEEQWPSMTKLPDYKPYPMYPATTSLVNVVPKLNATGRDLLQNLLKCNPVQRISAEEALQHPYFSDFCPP
Cyclin-dependent kinase 5/CDK5 activator 1, sequence (Q15078 whole entry, further chain): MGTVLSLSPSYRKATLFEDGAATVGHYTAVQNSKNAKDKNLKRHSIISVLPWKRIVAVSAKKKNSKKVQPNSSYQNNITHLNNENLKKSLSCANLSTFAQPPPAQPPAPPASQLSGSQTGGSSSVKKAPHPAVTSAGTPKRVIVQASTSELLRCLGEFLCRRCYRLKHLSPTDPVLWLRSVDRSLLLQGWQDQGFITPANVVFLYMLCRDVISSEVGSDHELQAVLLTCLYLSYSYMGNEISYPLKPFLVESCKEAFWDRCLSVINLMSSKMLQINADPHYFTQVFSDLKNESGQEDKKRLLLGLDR

SMILES | IC50 [1] [µM] | Activity [2]
CC(=O)Nn1c(S)nnc1Cc1csc(NC(=O)c2ccccc2)n1 | 0.614 | Non-toxic
CC(=O)Nn1c(Cc2csc(NC(=O)c3ccccc3)n2)nnc1SCSc1nnc(Cc2csc(NC(=O)c3ccccc3)n2)n1NC(C)=O | 0.764 | Non-toxic
O=C(CCl)Nc1nc(Cc2n[nH]c(=S)n2NC(=O)c2ccccc2)cs1 | 0.761 | Non-toxic
CC(=O)NNC(=O)CSc1nnc(Cc2csc(NC(C)=O)n2)n1NC(=O)c1ccccc1 | 0.542 | Non-toxic
CC(=O)Nc1nc(Cc2nnc(SCSc3nnc(Cc4csc(NC(C)=O)n4)n3NC(C)=O)n2NC(C)=O)cs1 | 0.847 | Non-toxic
CC(=O)Nn1c(Cc2csc(NCCC(=O)O)n2)nnc1SCc1nnc(S)n1N | 6.41 | Non-toxic
CC(=O)Nn1c(Cc2csc(NC(=O)c3ccccc3)n2)nnc1SCc1nnc(S)n1N | 6.34 | Non-toxic
CC(=O)Nc1nc(Cc2nnc(SCC(=O)N/N=C/c3ccccc3)n2NC(=O)c2ccccc2)cs1 | 0.485 | Non-toxic
CC(=O)Nc1nc(Cc2nnc(SCc3nnc(S)n3N)n2NC(C)=O)cs1 | 5.25 | Non-toxic
CC(=O)Nn1c(Cc2csc(NC(=O)c3ccccc3)n2)nnc1SCC#N | 0.574 | Non-toxic
CC(=O)NNC(=O)CSc1nnc(Cc2csc(NC(C)=O)n2)n1NC(=O)c1ccc(Cl)cc1 | 0.641 | Non-toxic
O=C(CSc1nnc(Cc2csc(NC(=O)CCl)n2)n1NC(=O)c1ccc(Cl)cc1)NNC(=O)c1ccccc1 | 0.64 | Non-toxic
O=C(CSc1nnc(Cc2csc(NC(=O)c3ccccc3)n2)n1NC(=O)c1ccccc1)N/N=C/c1ccccc1 | 0.496 | Non-toxic
CC(=O)Nn1c(S)nnc1Cc1csc(NC(=O)CCl)n1 | 0.684 | Non-toxic
CC(=O)Nn1c(Cc2csc(NC(=O)CCl)n2)nnc1SCSc1nnc(Cc2csc(NC(=O)CCl)n2)n1NC(C)=O | 0.847 | Non-toxic
CC(=O)Nc1nc(Cc2nnc(SCSc3nnc(Cc4csc(NC(C)=O)n4)n3NC(=O)c3ccccc3)n2NC(=O)c2ccccc2)cs1 | 0.647 | Non-toxic
CC(=O)Nc1nc(Cc2nnc(SCc3n[nH]c(=S)n3N)n2NC(=O)c2ccccc2)cs1 | 6.54 | Non-toxic
COC(=O)CSc1nnc(Cc2csc(NC(=O)CCl)n2)n1NC(C)=O | 0.695 | Non-toxic
CC(=O)Nn1c(Cc2csc(NCCC(=O)O)n2)nnc1SCC(=O)N/N=C/c1ccccc1 | 0.635 | Non-toxic
O=C(Nc1nc(Cc2n[nH]c(=S)n2NC(=O)c2ccccc2)cs1)c1ccccc1 | 0.894 | Non-toxic
O=C(Nc1nc(Cc2nnc(SCSc3nnc(Cc4csc(NC(=O)c5ccccc5)n4)n3NC(=O)c3ccccc3)n2NC(=O)c2ccccc2)cs1)c1ccccc1 | 0.698 | Non-toxic
N#CCSc1nnc(Cc2csc(NC(=O)CCl)n2)n1NC(=O)c1ccccc1 | 0.657 | Non-toxic
CC(=O)Nc1nc(Cc2nnc(SCC(=O)NNC(=O)c3ccccc3)n2NC(=O)c2ccc(Cl)cc2)cs1 | 0.534 | Non-toxic
CC(=O)Nc1nc(Cc2nnc(SCC(=O)NNC(=O)CCl)n2NC(C)=O)cs1 | 0.476 | Non-toxic
COC(=O)CSc1nnc(Cc2csc(NC(=O)CCl)n2)n1NC(=O)c1ccccc1 | 0.674 | Non-toxic
CC(=O)Nn1c(Cc2csc(NCCC(=O)O)n2)nnc1SCC#N | 0.641 | Non-toxic

Further compounds by falling IC50 [1], results first:

IC50 [1] [µM] | SMILES | Activity [2]
0.467 | COC(=O)CSc1nnc(Cc2csc(NC(C)=O)n2)n1NC(C)=O | Non-toxic
0.467 | CC(=O)Nn1c(Cc2csc(NC(=O)c3ccccc3)n2)nnc1SCC(=O)N/N=C/c1ccccc1 | Non-toxic
0.467 | O=C(CSc1nnc(Cc2csc(NC(=O)CCl)n2)n1NC(=O)c1ccccc1)NNC(=O)c1ccccc1 | Non-toxic
0.463 | CC(=O)Nc1nc(Cc2nnc(SCC#N)n2NC(C)=O)cs1 | Non-toxic
0.463 | CC(=O)Nc1nc(Cc2nnc(SCC(=O)N/N=C/c3ccccc3)n2NC(C)=O)cs1 | Non-toxic
0.462 | CC(=O)Nn1c(Cc2csc(NC(=O)CCl)n2)nnc1SCC(=O)NNC(=O)CCl | Non-toxic
0.44 | COC(=O)CSc1nnc(Cc2csc(NC(=O)CCl)n2)n1NC(=O)c1ccc(Cl)cc1 | Non-toxic
0.432 | O=C(O)CCNc1nc(Cc2nnc(SCC(=O)NNC(=O)c3ccccc3)n2NC(=O)c2ccccc2)cs1 | Non-toxic
0.426 | N#CCSc1nnc(Cc2csc(NCCC(=O)O)n2)n1NC(=O)c1ccc(Cl)cc1 | Non-toxic
0.421 | CC(=O)Nc1nc(Cc2nnc(SCC(=O)NNC(=O)c3ccccc3)n2NC(=O)c2ccccc2)cs1 | Non-toxic
0.39 | Nn1c(S)nnc1Cc1csc(NC(=O)CCl)n1 | Non-toxic
0.384 | CC(=O)NNC(=O)CSc1nnc(Cc2csc(NC(C)=O)n2)n1NC(C)=O | Non-toxic
0.354 | CC(=O)NNC(=O)CSc1nnc(Cc2csc(NC(=O)CCl)n2)n1NC(C)=O | Non-toxic
0.352 | CC(=O)NNC(=O)CSc1nnc(Cc2csc(NCCC(=O)O)n2)n1NC(=O)c1ccc(Cl)cc1 | Non-toxic
0.34 | O=C(CCl)NNC(=O)CSc1nnc(Cc2csc(NC(=O)c3ccccc3)n2)n1NC(=O)c1ccc(Cl)cc1 | Non-toxic
0.34 | CC(=O)NNC(=O)CSc1nnc(Cc2csc(NC(=O)c3ccccc3)n2)n1NC(=O)c1ccc(Cl)cc1 | Non-toxic
0.29 | COC(=O)CSc1nnc(Cc2csc(NC(=O)c3ccccc3)n2)n1NC(=O)c1ccc(Cl)cc1 | Non-toxic
0.268 | NNC(=O)CSc1nnc(Cc2csc(NC(=O)c3ccccc3)n2)n1NC(=O)c1ccccc1 | Non-toxic
0.264 | CC(=O)Nn1c(Cc2csc(NCCC(=O)O)n2)nnc1SCC(=O)NNC(=O)CCl | Non-toxic
0.26 | CC(=O)Nc1nc(Cc2nnc(SCC(=O)NNC(=O)CCl)n2NC(=O)c2ccc(Cl)cc2)cs1 | Non-toxic
0.246 | O=C(CSc1nnc(Cc2csc(NC(=O)c3ccccc3)n2)n1NC(=O)c1ccc(Cl)cc1)N/N=C/c1ccccc1 | Non-toxic
0.246 | NNC(=O)CSc1nnc(Cc2csc(NC(=O)CCl)n2)n1NC(=O)c1ccccc1 | Non-toxic
0.241 | CC(=O)Nc1nc(Cc2nnc(SCC(=O)NN)n2NC(C)=O)cs1 | Non-toxic
0.224 | O=C(CCl)NNC(=O)CSc1nnc(Cc2csc(NC(=O)CCl)n2)n1NC(=O)c1ccc(Cl)cc1 | Non-toxic
0.197 | CC(=O)Nc1nc(Cc2nnc(SCC(=O)NN)n2NC(=O)c2ccccc2)cs1 | Non-toxic
